From patent US20210308120A1, “Use of Amitriptyline for Blocking Brain Hemichannels and Method for Potentiating its Effect in Vivo” (THERANEXUS, priority 2015, published 2021) come the findings set out here.

The structures appear in SMILES notation.

Data set [1] has as its system neuropathic mice (cuff model, allodynia). The data set is described as follows: Mechanical allodynia, von Frey test in sciatic nerve cuff model. The class given is in vivo, mouse. The protocol: Paw withdrawal thresholds of mice treated with either amitriptyline 6 mg/kg alone (AMIT 6) or amitriptyline 12 mg/kg alone (AMIT 12) are also shown (D). FIG. 10 (E) represents area under curve analysis.
Area under curve analysis are shown (B).
Neuropathic pain was induced to adult male C57BL/6J mice (Charles River, L'Arbresle, France) by cuffing the main branch of the right sciatic nerve (For detailed description and video illustration: Yalcin et al. 2014, J Vis Exp 89:e51608). Surgeries were performed under ketamine (68 mg/kg)/xylazine (10 mg/kg) intraperitoneal (i.p.) anesthesia (Centravet, Tadden, France). The common branch of the right sciatic nerve was exposed and a cuff of PE-20 polyethylene tubing (Harvard Apparatus, Les Ulis, France) of standardized length (2 mm) was unilaterally inserted around it (Cuff group). The shaved skin was closed using suture.
Injections were done once a day during the 17 first days of treatment, in the afternoon. As a single dose per day was ineffective, treatment was then done twice a day, morning and afternoon, from the 8 last days of treatment.
Mechanical allodynia was tested using von Frey hairs and results were expressed in grams (For detailed description and video illustration: Yalcin et al. 2014, J Vis Exp 89:e51608). Tests were done during the morning, starting at least 2 hours after lights on. Mice were placed in clear Plexiglas boxes (7 cm×9 cm×7 cm) on an elevated mesh screen. Calibrated von Frey filaments (Bioseb, Vitrolles, France) were applied to the plantar surface of each hindpaw until they just bent, in a series of ascending forces up to the mechanical threshold. Filaments were tested five times per paw and the paw withdrawal threshold was defined as the lower of two consecutive filaments for which three or more withdrawals out of the five trials were observed.
Mice were subjected to sciatic nerve cuffing and then tested with the von Frey test to evaluate allodynia quantified as pressure threshold.
Mice were subjected to sciatic nerve cuffing and then tested with the von Frey test to evaluate allodynia quantified as pressure threshold. Neuropathic mice, characterized by a decrease of pressure threshold after surgery, were then treated during 25 days and tested by the von Frey test during this period.

The test system of data set [2] is SN-CCI rats (neuropathic pain, hyperalgesia). The data set is described as follows: Randall & Selitto test in SN-CCI rats, chronic 14-day administration. In kind it is in vivo, rat. The settings on record: amitriptyline 12 mg/kg s.c. osmotic pump; mefloquine 0.5 mg/kg i.p. twice a day; 14 days; vs saline. From the text:
Data are the means±S.E.M. of n=8-14 rats.
Data are the means±S.E.M. of n=8-14 rats. *p<0.05, **p<0.01, ***p<0.001 as compared with “saline+saline” group at the same time, ≠p<0.05 as compared between amitriptyline groups, two-way ANOVA, Bonferroni test.
(§1) One week after their arrival, rats were anesthetized with sodium pentobarbital before exposing the common sciatic nerve. As described in Bennett's article, four chromic catgut (5-0) ligations were tied loosely proximally to the sciatic trifurcation (Bennett and Xie, 1988).
(§2) All behavioral assessments were conducted between 9 a.m. and 5 p.m. in a quiet room. An increasing pressure was applied to the right hind paw of SN-CCI (Sciatic Nerve-Chronic Constriction Injury) rat to evaluate hyperalgesia-like behavior (Viguier and al, 2013). Values correspond to the pressure threshold producing the paw withdrawal and then the vocalization of the rat.
(§3) Osmotic mini-pumps (Alzet, model 2ML2), delivering for the following 14 days amitriptyline or vehicle were subcutaneously implanted.
a) Rats were ligated on sciatic nerve and then tested with the Randall & Selitto test 14 days after surgery, to evaluate hyperalgesia quantified as pressure threshold. Neuropathic rats, characterized by a decrease of pressure threshold after surgery, were then treated during 14 days and tested by the Randall & Selitto test during this period.

Data set [3] shares this test system. The data set is described as follows: Randall & Selitto test in SN-CCI rats, repeated administration every 150 minutes. The class given is in vivo, rat. To be noted: amitriptyline alone i.p. every 150 min; at 90 and 240 min. How it is done: as §1, §2
Data set [4] can be described thus: Pharmacokinetic of amitriptyline in brain and serum of SN-CCI rats. In kind it is in vivo, rat. The settings on record: amitriptyline 12 mg/kg osmotic pump ± mefloquine 0.5 mg/kg i.p. bidaily, 14 days. How it is done:
Blood was collected and kept 1 hour at 4° C. Then serum and brain were collected. Amitriptyline was quantified by HPLC and mass spectrometry (Crepta laboratory).
as §3
After 14-day treatment, so 28 days after surgery, rats were sacrificed and brain as well as serum samples were collected to quantify amitriptyline.

For `CN(C)CCC=C1c2ccccc2CCc2ccccc21` [amitriptyline, 3-(5,6-dihydrodibenzo[2,1-b:2′,1′-f][7]annulen-11-ylidene)-N,N-dimethylpropan-1-amine], the “Paw withdrawal threshold (von Frey)” value in data set [1] (amitriptyline 6 mg/kg i.p. chronic, alone) is “no changes of paw withdrawal”. Also, in data set [1] (amitriptyline 12 mg/kg i.p. chronic, in comparison with amitriptyline 6 mg/kg), the “Paw withdrawal threshold (von Frey)” value is reported as “significant increase of the paw withdrawal threshold from day 32 to day 34”. Further, the “Effective equivalent dose of amitriptyline when administered in combination with mefloquine” value in data set [1] (relative to active dose of amitriptyline alone) is listed as “about 0.5”. For the same molecule, in data set [2], the “Paw withdrawal threshold (pressure)” value is on record as “significant increase of the paw withdrawal threshold at day 14” and the “Vocalization threshold (pressure)” value was “increase of the vocalization threshold”. Besides, the Paw withdrawal threshold entry in data set [3] is “did not induce significant effect on its own”. In data set [4], the “Amitriptyline concentration in brain, with vs without mefloquine” value is listed as “No changes”; the “Amitriptyline concentration in serum, with vs without mefloquine” value was “No changes”; the “Amitriptyline ratio brain/plasma, with vs without mefloquine” value is “no significant difference”.
